# Reference: patent US8383658B2, “Isoxazole based neuronal nicotinic receptor ligands and methods of use” (Abbott Laboratories, priority 2008, dated 2013)
# Biological target: T1, human α4β2 (Homo sapiens, UniProt P17787+P43681)
# T1 construct: expressed in transfected cells
# Test: Calcium flux assay (FLIPR), potentiation of submaximal agonist response in HEK 293 cells expressing α4β2
# Format: cell-based
# Conditions: α4β2 PAM; fluorescence response to submaximal nicotine considered as 100%
# Text: One manner to characterize α4β2 PAM activity is by characterization in clonal cell lines (for example, human embryonic kidney 293 cells) expressing the human neuronal nicotinic acetylcholine receptor subtype α4β2, particularly by use of Fluorescent Image Plate Reader technology. Effects on calcium flux or membrane potential changes can be assessed. Such assays have been reported and further details for carrying out the assays can be obtained in International Publication No. WO 2006/114400. Another method to identify and characterize allosteric modulator activity is by expressing the α4β2 subunits in Xenopus oocytes, and by measuring electrophysiological effects on ligand-evoked current responses as previously described in Curtis, L., et al., Molecular Pharmacology, 61: 127-135, 2002.
# To determine the effectiveness of representative compounds of this invention as ligands for α4β2 PAM activity, the compounds of the invention can be evaluated according to the Calcium Flux Assay described below.
# Human embryonic kidney (HEK) 293 cells stably expressing human α4β2 or α3β4 combinations are grown to confluency in 162 cm^2 tissue culture flasks in DMEM media supplemented with 10% FBS and 25 μg/ml zeocin and 200 μg/ml hygromycin B. Cells expressing rat or ferret subunits may also be used. For assessing α3* or α7* selectivity, IMR-32 cells may also be used. IMR-32 neuroblastoma cells (ATCC) are grown to confluency in 162 cm^2 tissue culture flasks in minimum essential media supplemented with 10% FBS and 1 mM sodium pyruvate, 1% non-essential amino acids and 1% antibiotic-antimycotic. For the calcium flux assay, c cells are then dissociated using cell dissociation buffer and 100-150 μl per well of 3.5×10^5 cells/ml cell suspension (˜50,000-100,000 cells/well) was plated into 96-well black plates (poly-D-lysine precoated) with clear bottom and maintained for 24-48 hours in a tissue culture incubator at 37° C. under an atmosphere of 5% CO2: 95% air. Other clonal cell lines or primary cell cultures that express endogenous α4* nicotinic receptors may also be used in this assay. Calcium flux was measured using calcium-3 assay kit (Molecular Devices, Sunnyvale, Calif.) or fluo-4 (Invitrogen). A stock solution of the dye was prepared by dissolving each vial supplied by the vendor in Hank's balanced salt solution buffer (HBSS) or 150 mM NMDG, 20 mM CaCl2 containing 10 mM HEPES. The stock solution was diluted 1:20 using the same buffer before use. The growth media was removed from the cells. The cells were loaded with 100 μl of the dye per well and incubated at room temperature for up to one hour for HEK 293 clonal stable cell lines or 30 minutes-45 minutes at 37° C. for IMR-32 cells. Fluorescence measurements were read simultaneously from all the wells by a Fluorometic Imaging Plate Reader (FLIPR) at an excitation wavelength of 480 nm and an emission wavelength of 520 nm. Baseline fluorescence was measured for the first 6 seconds at which 3× concentrations of modulator/test compounds were added to the cell plate at 50 μl and incubated for five minutes. The fluorescence intensity was captured every second for the first 1 minute followed by every 5 seconds for an additional 4 minutes. This procedure was followed by 50 μl of 4× concentration of agonist and readings were taken for a period of 3-5 minutes as described above.
# The ability of test compounds to positively modulate the response (i.e., increase the response) induced by a submaximal concentration of agonist (EC20-30%) such as nicotine is measured. Potentiation is measured based on peak fluorescence responses by screening compounds at fixed concentrations or in a concentration-response manner to derive EC50 values. The concentration dependence of changes in fluorescence responses is fitted by nonlinear regression analysis (GraphPad Prism, San Diego, Calif.) to obtain EC50 values. The degree of potentiation and EC50 values of the test compounds are typically calculated. […]
# T1 sequence (P43681 29-627 limits assumed): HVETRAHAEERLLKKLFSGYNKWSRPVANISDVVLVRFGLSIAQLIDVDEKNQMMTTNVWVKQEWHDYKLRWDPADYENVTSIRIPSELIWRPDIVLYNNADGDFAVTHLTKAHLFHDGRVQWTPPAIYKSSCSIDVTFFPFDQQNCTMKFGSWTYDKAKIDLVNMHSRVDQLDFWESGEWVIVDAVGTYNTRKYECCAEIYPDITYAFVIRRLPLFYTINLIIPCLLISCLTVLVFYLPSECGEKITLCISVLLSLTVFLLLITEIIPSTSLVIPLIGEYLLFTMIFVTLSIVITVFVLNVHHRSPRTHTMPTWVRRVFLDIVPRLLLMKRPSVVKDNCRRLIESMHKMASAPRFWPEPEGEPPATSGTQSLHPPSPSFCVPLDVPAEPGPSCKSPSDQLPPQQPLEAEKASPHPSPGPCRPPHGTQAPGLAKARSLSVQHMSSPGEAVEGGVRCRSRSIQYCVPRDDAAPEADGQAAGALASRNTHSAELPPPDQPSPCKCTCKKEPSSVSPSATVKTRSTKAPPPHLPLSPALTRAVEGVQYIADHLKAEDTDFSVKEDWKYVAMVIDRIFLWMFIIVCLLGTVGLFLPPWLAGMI
# T1 sequence (P17787 26-502): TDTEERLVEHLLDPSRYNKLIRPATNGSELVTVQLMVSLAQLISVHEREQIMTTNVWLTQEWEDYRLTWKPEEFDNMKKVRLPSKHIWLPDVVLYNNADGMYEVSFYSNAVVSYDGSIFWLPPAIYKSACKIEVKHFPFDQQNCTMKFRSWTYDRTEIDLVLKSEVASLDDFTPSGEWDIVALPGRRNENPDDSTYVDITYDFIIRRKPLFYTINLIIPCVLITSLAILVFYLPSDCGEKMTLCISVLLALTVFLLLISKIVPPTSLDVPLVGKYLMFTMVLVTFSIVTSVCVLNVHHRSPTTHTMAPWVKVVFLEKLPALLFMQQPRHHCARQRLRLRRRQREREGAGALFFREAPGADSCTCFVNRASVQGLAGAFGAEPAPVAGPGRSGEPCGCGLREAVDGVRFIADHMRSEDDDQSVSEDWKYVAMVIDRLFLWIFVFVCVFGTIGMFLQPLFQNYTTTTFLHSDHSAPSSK
row,SMILES,Activity (allosteric effects—potentiation of fluorescence responses)
1,"c1cncc(-c2cc(-c3cccnc3)on2)c1 [Example 1, 3,5-Di(pyridin-3-yl)isoxazole]",a (“a” denotes as activity range from 200-400%)
2,"Fc1ccc(-c2cc(-c3cccnc3)no2)cc1F [Example 16, 5-(3,4-Difluorophenyl)-3-(pyridin-3-yl)isoxazole]",b (“b” denotes an activity range from 150-200%)
3,"Fc1cc(-c2cc(-c3cccnc3)no2)cc(F)c1F [Example 17, 5-(3,4,5-Trifluorophenyl)-3-(pyridin-3-yl)isoxazole]",a (“a” denotes as activity range from 200-400%)
4,"CC(=O)c1cccc(-c2cc(-c3cccnc3)no2)c1 [Example 25, 1-(3-(3-(Pyridin-3-yl)isoxazol-5-yl)phenyl)ethanone]",b (“b” denotes an activity range from 150-200%)
5,"N#Cc1cccc(-c2cc(-c3cncc(F)c3)no2)c1 [Example 29, 3-(3-(5-Fluoropyridin-3-yl)isoxazol-5-yl)benzonitrile]",b (“b” denotes an activity range from 150-200%)
6,"N#Cc1cc(-c2cc(-c3cccnc3)no2)ccc1F [Example 68, 2-Fluoro-5-(3-(pyridin-3-yl)isoxazol-5-yl)benzonitrile]",a (“a” denotes as activity range from 200-400%)
